Test system: wild type S. typhimurium
Test: Growth on AI-2 as sole carbon source
Type: cell-based
Description: One possibility is that AI-2 is initially used as a signal, then, at subsequent times, when AI-2 is no longer required for signal transduction, S. typhimurium internalizes it for use as a carbon source. To test this idea, we attempted to grow wild type S. typhimurium on in vitro prepared AI-2 as a sole carbon source. […] Therefore, growth on AI-2 cannot account for its disappearance from the medium. A second possibility is that the removal of AI-2 activity is required for its modification to another signal. For example, the LsrE epimerase, or another enzyme, could convert AI-2 into an internal signal. Finally, AI-2 could be internalized for degradation. In this case, elimination of AI-2 could serve to terminate the signalling process. Signal production coupled to subsequent elimination could allow S. typhimurium the flexibility to transition between several modes of existence. For example, as AI-2 is associated with the presence of many species of bacteria, high levels of AI-2 could be indicative of the transition from outside a host to the intestinal environment, whereas low levels of AI-2 could signal S. typhimurium that it has exited the intestinal tract for the next location in the infection (i.e., the macrophage) where S. typhimurium is not in association with high numbers of commensal bacteria. […]

Which “growth on in vitro prepared AI-2 as a sole carbon source” value does the source give for CC(=O)C(=O)C(O)CO (stereo not shown) [AI-2, 4,5-dihydroxy-2,3-pentanedione] here?
Its value is “could not grow on AI-2”.

— patent US7183099B2, “Inhibitors of autoinducer transporters” (Princeton University, priority 2001, dated 2007)
